In ChEMBL document CHEMBL4177616, “Potent anti-melanogenic activity and favorable toxicity profile of selected 4-phenyl hydroxycoumarins in the zebrafish model and the computational molecular modeling studies” (Bioorg Med Chem, 2017):
Calls of active or inactive are those of the source. No cut-off for these calls is given here.

Legend:
[1] = Toxicity in wild type zebrafish embryos assessed as dead embryo at 15 ug/ml treated for 96 hrs post fertilization starting from 6 hrs post fertilization by inverted microscopic analysis relative to control; type: organism-based, Danio rerio; details: in vivo, read-out: Activity
Danio rerio [2] = species on record: Danio rerio; assay: Toxicity in wild type zebrafish embryos assessed as eyes at 50 ug/ml treated for 96 hrs post fertilization starting from 6 hrs post fertilization by inverted microscopic analysis relative to control; type: organism-based; details: in vivo
Danio rerio [3] = species on record: Danio rerio; assay: Toxicity in wild type zebrafish embryos assessed as head malformation at 50 ug/ml treated for 96 hrs post fertilization starting from 6 hrs post fertilization by inverted microscopic analysis relative to control; type: organism-based; details: in vivo
Danio rerio [4] = species on record: Danio rerio; assay: Toxicity in wild type zebrafish embryos assessed as notochord at 50 ug/ml treated for 96 hrs post fertilization starting from 6 hrs post fertilization by inverted microscopic analysis relative to control; type: organism-based; details: in vivo
Melanocyte [5] = assay: Anti-melanogenic activity in wild type zebrafish embryo melanocytes assessed as decrease in pigmentation at 25 ug/ml treated for 72 hrs post fertilization starting from 6 to 24 hrs post fertilization; type: functional, cell-based; details: Danio rerio
Danio rerio [6] = species on record: Danio rerio; assay: Toxicity in wild type zebrafish embryos assessed as notochord at 15 ug/ml treated for 96 hrs post fertilization starting from 6 hrs post fertilization by inverted microscopic analysis relative to control; type: organism-based; details: in vivo
Tyrosinase (Danio rerio) = molecular target: T1, Tyrosinase (Danio rerio) (UniProt A0A8M1PAD4); assay: Inhibition of zebrafish embryo tyrosinase assessed as residual activity at 5 ug/ml after 48 hrs relative to control
T1 sequence (whole entry): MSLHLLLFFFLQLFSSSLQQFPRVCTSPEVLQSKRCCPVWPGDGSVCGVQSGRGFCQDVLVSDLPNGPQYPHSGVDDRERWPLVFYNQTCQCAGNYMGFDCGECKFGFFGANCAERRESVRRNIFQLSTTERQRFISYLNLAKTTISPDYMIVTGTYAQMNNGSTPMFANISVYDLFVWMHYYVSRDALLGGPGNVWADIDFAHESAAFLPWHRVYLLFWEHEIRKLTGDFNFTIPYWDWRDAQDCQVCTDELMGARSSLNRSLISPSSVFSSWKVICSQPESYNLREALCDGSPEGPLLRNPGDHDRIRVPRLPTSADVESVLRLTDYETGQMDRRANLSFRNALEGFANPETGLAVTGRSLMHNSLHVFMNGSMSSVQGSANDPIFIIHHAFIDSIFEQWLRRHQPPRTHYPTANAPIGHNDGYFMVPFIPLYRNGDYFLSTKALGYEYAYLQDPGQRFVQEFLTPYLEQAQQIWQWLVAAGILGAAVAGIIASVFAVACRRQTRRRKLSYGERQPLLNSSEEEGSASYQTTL

Danio rerio [7] = species on record: Danio rerio; assay: Toxicity in wild type zebrafish embryos assessed as unhatched embryo at 50 ug/ml treated for 96 hrs post fertilization starting from 6 hrs post fertilization by inverted microscopic analysis relative to control; type: organism-based; details: in vivo
Melanocyte [8] = assay: Cytotoxicity against wild type zebrafish embryo melanocytes assessed as number of melanocyte at 25 ug/ml treated for 72 hrs post fertilization starting from 6 to 24 hrs post fertilization; type: cell-based, Danio rerio
Danio rerio [9] = assay: Toxicity in wild type zebrafish embryos assessed as pericardial edema at 2000 ug/ml treated for 96 hrs post fertilization starting from 6 hrs post fertilization by inverted microscopic analysis relative to control; type: organism-based; details: in vivo
[10] = Toxicity in wild type zebrafish embryos assessed as dead embryo at 1000 ug/ml treated for 96 hrs post fertilization starting from 6 hrs post fertilization by inverted microscopic analysis relative to control; type: organism-based, Danio rerio; details: in vivo, read-out: Activity
Danio rerio [11] = assay: Toxicity in wild type zebrafish embryos assessed as yolk edema at 1000 ug/ml treated for 96 hrs post fertilization starting from 6 hrs post fertilization by inverted microscopic analysis relative to control; type: organism-based; details: in vivo
Danio rerio [12] = species on record: Danio rerio; assay: Toxicity in wild type zebrafish embryos assessed as blood circulation at 100 ug/ml treated for 96 hrs post fertilization starting from 6 hrs post fertilization by inverted microscopic analysis relative to control; type: organism-based; details: in vivo
Danio rerio [13] = species on record: Danio rerio; assay: Anti-melanogenic activity in wild type zebrafish 24 hrs post fertilization embryos assessed as decrease in body pigmentation at 100 ug/ml after 48 hrs; type: functional, organism-based
Danio rerio [14] = species on record: Danio rerio; assay: Toxicity in wild type zebrafish embryos assessed as skeletal deformities at 500 ug/ml treated for 96 hrs post fertilization starting from 6 hrs post fertilization by inverted microscopic analysis relative to control; type: organism-based; details: in vivo
Danio rerio [15] = species on record: Danio rerio; assay: Toxicity in wild type zebrafish embryos assessed as growth retardation at 1000 ug/ml treated for 96 hrs post fertilization starting from 6 hrs post fertilization by inverted microscopic analysis relative to control; type: organism-based; details: in vivo
[16] = Toxicity in wild type zebrafish embryos assessed as dead embryo at 100 ug/ml treated for 96 hrs post fertilization starting from 6 hrs post fertilization by inverted microscopic analysis relative to control; type: organism-based, Danio rerio; details: in vivo, read-out: Activity
Danio rerio [17] = species on record: Danio rerio; assay: Toxicity in wild type zebrafish embryos assessed as growth retardation at 2000 ug/ml treated for 96 hrs post fertilization starting from 6 hrs post fertilization by inverted microscopic analysis relative to control; type: organism-based; details: in vivo
Danio rerio [18] = species on record: Danio rerio; assay: Toxicity in wild type zebrafish embryos assessed as growth retardation at 500 ug/ml treated for 96 hrs post fertilization starting from 6 hrs post fertilization by inverted microscopic analysis relative to control; type: organism-based; details: in vivo
Danio rerio [19] = species on record: Danio rerio; assay: Toxicity in wild type zebrafish embryos assessed as teratogenic embryo at 100 ug/ml treated for 96 hrs post fertilization starting from 6 hrs post fertilization by inverted microscopic analysis relative to control; type: organism-based; details: in vivo
Danio rerio [20] = species on record: Danio rerio; assay: Toxicity in wild type zebrafish embryos assessed as skeletal deformities at 2500 ug/ml treated for 96 hrs post fertilization starting from 6 hrs post fertilization by inverted microscopic analysis relative to control; type: organism-based; details: in vivo
Danio rerio [21] = species on record: Danio rerio; assay: Toxicity in wild type zebrafish embryos assessed as blood circulation at 2000 ug/ml treated for 96 hrs post fertilization starting from 6 hrs post fertilization by inverted microscopic analysis relative to control; type: organism-based; details: in vivo
Danio rerio [22] = species on record: Danio rerio; assay: Toxicity in wild type zebrafish embryos assessed as growth retardation at 2500 ug/ml treated for 96 hrs post fertilization starting from 6 hrs post fertilization by inverted microscopic analysis relative to control; type: organism-based; details: in vivo
Danio rerio [23] = species on record: Danio rerio; assay: Toxicity in wild type zebrafish embryos assessed as normal embryo at 100 ug/ml treated for 96 hrs post fertilization starting from 6 hrs post fertilization by inverted microscopic analysis relative to control; type: organism-based; details: in vivo
Danio rerio [24] = species on record: Danio rerio; assay: Toxicity in wild type zebrafish embryos assessed as eyes at 2500 ug/ml treated for 96 hrs post fertilization starting from 6 hrs post fertilization by inverted microscopic analysis relative to control; type: organism-based; details: in vivo
Danio rerio [25] = species on record: Danio rerio; assay: Toxicity in wild type zebrafish embryos assessed as skeletal deformities at 1000 ug/ml treated for 96 hrs post fertilization starting from 6 hrs post fertilization by inverted microscopic analysis relative to control; type: organism-based; details: in vivo
Danio rerio [26] = species on record: Danio rerio; assay: Toxicity in wild type zebrafish embryos assessed as heart beat at 2500 ug/ml treated for 96 hrs post fertilization starting from 6 hrs post fertilization by inverted microscopic analysis relative to control; type: organism-based; details: in vivo
Danio rerio [27] = species on record: Danio rerio; assay: Toxicity in wild type zebrafish embryos assessed as head malformation at 1000 ug/ml treated for 96 hrs post fertilization starting from 6 hrs post fertilization by inverted microscopic analysis relative to control; type: organism-based; details: in vivo
Danio rerio [28] = species on record: Danio rerio; assay: Toxicity in wild type zebrafish embryos assessed as head malformation at 100 ug/ml treated for 96 hrs post fertilization starting from 6 hrs post fertilization by inverted microscopic analysis relative to control; type: organism-based; details: in vivo
Danio rerio [29] = species on record: Danio rerio; assay: Toxicity in wild type zebrafish embryos assessed as normal embryo at 2000 ug/ml treated for 96 hrs post fertilization starting from 6 hrs post fertilization by inverted microscopic analysis relative to control; type: organism-based; details: in vivo
Danio rerio [30] = species on record: Danio rerio; assay: Toxicity in wild type zebrafish embryos assessed as unhatched embryo at 500 ug/ml treated for 96 hrs post fertilization starting from 6 hrs post fertilization by inverted microscopic analysis relative to control; type: organism-based; details: in vivo

For `O=c1cc(-c2ccccc2)c2ccc(O)cc2o1`, the mortality at 15 ug/ml [1] was 0%, the Activity (Danio rerio [2]) was 0% and the Activity (Danio rerio [3]) was 0%. The Activity (Danio rerio [4]) was 0%, the Activity (Melanocyte [5]) was “Active” and the Activity (Danio rerio [6]) was 0%. For the same molecule, the Activity (Tyrosinase (Danio rerio)) was 99%, the Activity (Danio rerio [7]) was 0% and the Activity (Melanocyte [8]) was “Non-Toxic”.

With `O=c1cc(CO)occ1O` [KOJIC ACID] the Activity (Danio rerio [9]) was 100%, the mortality at 1000 ug/ml [10] was 0% and the Activity (Danio rerio [11]) was 0%. The Activity (Danio rerio [12]) was 0%, the Activity (Danio rerio [13]) was “inactive” and the Activity (Danio rerio [14]) was 0%. The Activity (Danio rerio [15]) was 0%, the mortality at 100 ug/ml [16] was 0% and the Activity (Danio rerio [17]) was 3.33%. It also gave an Activity (Danio rerio [18]) of 0%, an Activity (Danio rerio [19]) of 35% and an Activity (Danio rerio [20]) of 98.33%. For the same molecule, the Activity (Danio rerio [21]) was 6.67%, the Activity (Danio rerio [22]) was 35% and the Activity (Danio rerio [23]) was 65%. It also gave an Activity (Danio rerio [24]) of 0%, an Activity (Danio rerio [25]) of 0% and an Activity (Danio rerio [26]) of 100%. For the same molecule, the Activity (Danio rerio [27]) was 0%, the Activity (Danio rerio [28]) was 0% and the Activity (Danio rerio [29]) was 0%. For the same molecule, the Activity (Danio rerio [30]) was 0%.

`O=c1cc(-c2ccccc2)c2c(O)cc(O)cc2o1` gave a mortality at 15 ug/ml [1] of 0%, an Activity (Danio rerio [2]) of 0% and an Activity (Danio rerio [3]) of 0%. The Activity (Danio rerio [4]) was 0%, the Activity (Melanocyte [5]) was “Active” and the Activity (Danio rerio [6]) was 0%. For the same molecule, the Activity (Tyrosinase (Danio rerio)) was 95%, the Activity (Danio rerio [7]) was 0% and the Activity (Melanocyte [8]) was “Non-Toxic”.
